Measured values as given in patent publication US9187467B2, “2-phenyl benzothiazole linked imidazole compounds as potential anticancer agents and process for the preparation thereof” (Council of Scientific and Industrial Research, priority 2012, dated 2015).
Like-named read-outs stand apart in the source and are kept apart here.

How the values were obtained:
Assay type in all cases: cell-based, human
SNB-75 = test: SRB anticancer assay, CNS; conditions: Homo sapiens, SNB-75, 48 h
NCI/ADR-RES = test: SRB anticancer assay, ovarian; conditions: Homo sapiens, NCI/ADR-RES, 48 h
MALME-3M = test: SRB anticancer assay, melanoma; conditions: Homo sapiens, Malme-3M, 48 h
UACC-257 = test: SRB anticancer assay, melanoma; conditions: Homo sapiens, UACC-257, 48 h
EKVX = test: SRB anticancer assay, non-small lung; conditions: Homo sapiens, 48 h
KM12 = test: SRB anticancer assay, colon; conditions: Homo sapiens, KM12, 48 h
SF-295 = test: SRB anticancer assay, CNS; conditions: Homo sapiens, SF-295, 48 h
OVCAR-4 = test: SRB anticancer assay, ovarian; conditions: Homo sapiens, OVCAR-4, 48 h
MDA-MB-231/ATCC = test: SRB anticancer assay, breast; conditions: Homo sapiens, MDA-MB-231, 48 h, MDA-MB-231/ATCC (row head MDA-MB-), 48 h; read-out: GI50
A549/ATCC = test: SRB anticancer assay, non-small lung; conditions: Homo sapiens, 48 h
Colon cancer cell lines = test: SRB anticancer assay, panel result
Procedure: (§1) The compounds were evaluated for anticancer activity against sixty human cancer cells derived from nine cancer types (leukemia cell line, non-small-cell lung cell line, colon cell line, CNS cell line, melanoma cell line, ovarian cell line, prostate cell line, renal cancer cell line and breast cancer cell line) as shown in Table 1. For each compound, dose response curves for each cell line were measured at a minimum of five concentrations at 10 fold dilutions. A protocol of 48 h continuous drug exposure was used and a sulforhodamine B (SRB) protein assay was used to estimate cell viability or growth.

[1] = system: Non-small cell lung cancer cell lines; test: SRB anticancer assay, panel result
Procedure: as §1

[2] = system: Melanoma cancer cell lines; test: SRB anticancer assay, panel result
Procedure: as §1

[3] = system: Prostate cancer cell lines; test: SRB anticancer assay, panel result
Procedure: as §1

Renal cancer cell lines = test: SRB anticancer assay, panel result
Procedure: as §1

CNS cancer cell lines = test: SRB anticancer assay, panel result
Procedure: as §1

[4] = system: Ovarian cancer cell lines; test: SRB anticancer assay, panel result
Procedure: as §1

Breast cancer cell lines = test: SRB anticancer assay, panel result
Procedure: as §1

[5] = system: Leukemia cancer cell lines; test: SRB anticancer assay, panel result
Procedure: as §1

TK-10 = test: SRB anticancer assay, renal; conditions: Homo sapiens, TK-10, 48 h
OVCAR-3 = test: SRB anticancer assay, ovarian; conditions: Homo sapiens, OVCAR-3, 48 h
K-562 = test: SRB anticancer assay, leukemia; conditions: Homo sapiens, K562; K-562, 48 h
HT29 = test: SRB anticancer assay, colon; conditions: Homo sapiens, HT-29; HT29, 48 h
HCT-116 = test: SRB anticancer assay, colon; conditions: Homo sapiens, HCT-116, 48 h
SK-MEL-5 = test: SRB anticancer assay, melanoma; conditions: Homo sapiens, SK-MEL-5, 48 h
HS 578T = test: SRB anticancer assay, breast; conditions: Homo sapiens, 48 h

With `COc1cc(OC)c2sc(-c3ccc(-n4cncc4-c4cc(OC)c(OC)c(OC)c4)cc3)nc2c1` [Compound 6f, 5,7-Dimethoxy-2-(4-(5-(3,4,5-trimethoxyphenyl)-1H-imidazol-1-yl)phenyl)benzo[d]thiazole] the GI50 (SNB-75) was 6.47 µM, the GI50 (NCI/ADR-RES) was 5.65 µM and the GI50 (MALME-3M) was 3.73 µM. The GI50 (UACC-257) was over 100 µM, the GI50 (EKVX) was 5.09 µM and the GI50 (KM12) was 4.62 µM. For the same compound, the GI50 (SF-295) was 4.42 µM, the GI50 (OVCAR-4) was 3.25 µM and the GI50 (MDA-MB-231/ATCC) was 3.51 µM. The GI50 (A549/ATCC) was 6.16 µM, the “mean graph midpoint value (MG_MID) of log10 TGI” value (Colon cancer cell lines; Colon panel, total inhibition of net cell growth) was over −4.0 and the LC50 (Colon cancer cell lines; Homo sapiens, Colon panel, 50% net cell death, read-out: mean graph midpoint value (MG_MID) of Log10 LC50 (converted)) was over 100 µM. The GI50 (Colon cancer cell lines; Homo sapiens, Colon panel, read-out: mean graph midpoint value (MG_MID) of Log10 GI50 (converted)) was 7.41 µM, the GI50 (Colon cancer cell lines; Homo sapiens, seven colon cancer cell lines, exposure at least 48 h, read-out: GI50, range over the panel) was 3.92 to 5.96 µM and the LC50 ([1]; Homo sapiens, Non-small cell lung panel, 50% net cell death, read-out: mean graph midpoint value (MG_MID) of Log10 LC50 (converted)) was over 100 µM. The GI50 ([1]; Homo sapiens, Non-small cell lung panel, read-out: mean graph midpoint value (MG_MID) of Log10 GI50 (converted)) was 11.2 µM, the GI50 ([1]; Homo sapiens, nine Non-small cell lung cancer cell lines, exposure at least 48 h, read-out: GI50, range over the panel) was 3.27 to 75.9 µM and the “mean graph midpoint value (MG_MID) of log10 TGI” value ([1]; Non-small cell lung panel, total inhibition of net cell growth) was over −4.0. For the same compound, the LC50 ([2]; Homo sapiens, Melanoma panel, 50% net cell death, read-out: mean graph midpoint value (MG_MID) of Log10 LC50 (converted)) was over 100 µM, the GI50 ([2]; Homo sapiens, Melanoma panel, read-out: mean graph midpoint value (MG_MID) of Log10 GI50 (converted)) was 6.61 µM and the GI50 ([2]; Homo sapiens, nine melanoma cancer cell lines, exposure at least 48 h, read-out: GI50, range over the panel) was 2.46 to 7.91 µM. The “mean graph midpoint value (MG_MID) of log10 TGI” value ([2]; Melanoma panel, total inhibition of net cell growth) was over −4.0, the LC50 ([3]; Homo sapiens, Prostate panel, 50% net cell death, read-out: mean graph midpoint value (MG_MID) of Log10 LC50 (converted)) was over 100 µM and the GI50 ([3]; Homo sapiens, Prostate panel, read-out: mean graph midpoint value (MG_MID) of Log10 GI50 (converted)) was 16.2 µM. For the same compound, the GI50 ([3]; Homo sapiens, two prostate cancer cell lines (PC-3, DU-145), exposure at least 48 h, read-out: GI50, range over the panel) was 2.54 µM, the “mean graph midpoint value (MG_MID) of log10 TGI” value ([3]; Prostate panel, total inhibition of net cell growth) was over −4.0 and the CC50 (Renal cancer cell lines; Homo sapiens, Renal panel, 50% net cell death, read-out: mean graph midpoint value (MG_MID) of Log10 LC50 (converted)) was over 100 µM. For the same compound, the GI50 (Renal cancer cell lines; Homo sapiens, Renal panel, read-out: mean graph midpoint value (MG_MID) of Log10 GI50 (converted)) was 6.61 µM, the GI50 (Renal cancer cell lines; Homo sapiens, eight renal cancer cell lines, exposure at least 48 h, read-out: GI50, range over the panel) was 1.83 to 9.4 µM and the “mean graph midpoint value (MG_MID) of log10 TGI” value (Renal cancer cell lines; Renal panel, total inhibition of net cell growth) was over −4.0. For the same compound, the “mean graph midpoint value (MG_MID) of log10 TGI” value (CNS cancer cell lines; CNS panel, total inhibition of net cell growth) was over −4.0, the CC50 (CNS cancer cell lines; Homo sapiens, CNS panel, 50% net cell death, read-out: mean graph midpoint value (MG_MID) of Log10 LC50 (converted)) was over 100 µM and the GI50 (CNS cancer cell lines; Homo sapiens, CNS panel, read-out: mean graph midpoint value (MG_MID) of Log10 GI50 (converted)) was 15.8 µM. The GI50 (CNS cancer cell lines; Homo sapiens, six CNS cancer cell lines, exposure at least 48 h, read-out: GI50, range over the panel) was 4.15 to 8.59 µM, the LC50 ([4]; Homo sapiens, Ovarian panel, 50% net cell death, read-out: mean graph midpoint value (MG_MID) of Log10 LC50 (converted)) was over 100 µM and the GI50 ([4]; Homo sapiens, Ovarian panel, read-out: mean graph midpoint value (MG_MID) of Log10 GI50 (converted)) was 16.6 µM. The GI50 ([4]; Homo sapiens, seven ovarian cancer cell lines, exposure at least 48 h, read-out: GI50, range over the panel) was 3.25 to 5.87 µM, the “mean graph midpoint value (MG_MID) of log10 TGI” value ([4]; Ovarian panel, total inhibition of net cell growth) was over −4.0 and the “mean graph midpoint value (MG_MID) of log10 TGI” value (Breast cancer cell lines; Breast panel, total inhibition of net cell growth) was over −4.0. It also gave a CC50 (Breast cancer cell lines; Homo sapiens, Breast panel, 50% net cell death, read-out: mean graph midpoint value (MG_MID) of Log10 LC50 (converted)) of over 100 µM, a GI50 (Breast cancer cell lines; Homo sapiens, Breast panel, read-out: mean graph midpoint value (MG_MID) of Log10 GI50 (converted)) of 3.8 µM and a GI50 (Breast cancer cell lines; Homo sapiens, six breast cancer cell lines, exposure at least 48 h, read-out: GI50, range over the panel) of 3.27 to 5.23 µM. For the same compound, the LC50 ([5]; Homo sapiens, Leukemia panel, 50% net cell death, read-out: mean graph midpoint value (MG_MID) of Log10 LC50 (converted)) was over 100 µM, the GI50 ([5]; Homo sapiens, Leukemia panel, read-out: mean graph midpoint value (MG_MID) of Log10 GI50 (converted)) was 3.89 µM and the GI50 ([5]; Homo sapiens, six leukemia cancer cell lines, exposure at least 48 h, read-out: GI50, range over the panel) was 3.24 to 5.39 µM. The “mean graph midpoint value (MG_MID) of log10 TGI” value ([5]; Leukemia panel, total inhibition of net cell growth) was over −4.0, the GI50 (TK-10) was 9.4 µM and the GI50 (OVCAR-3) was 3.26 µM. It also gave a GI50 (K-562) of 3.83 µM, a GI50 (HT29) of 4.88 µM and a GI50 (HCT-116) of 3.92 µM. The GI50 (SK-MEL-5) was 2.46 µM and the GI50 (HS 578T) was 5.23 µM.
